The results in this text go back to paper PMC9764201, “Half-calcified calmodulin promotes basal activity and inactivation of the L-type calcium channel CaV1.2” (The Journal of Biological Chemistry, 2022).

Assay [1] concerns CaV1.2. In words: Cell-attached single-channel recording of CaV1.2 variants in HEK 293T/17 cells. The assay is classed as cell-based, rat. Conditions: 110 mM Ba2+, 0 mV from -80 mV; n=8; mean±SEM (Table S2). On the procedure: (§1) HEK 293T/17 cells (ATCC) were maintained as previously described ([15], [53]). For electrophysiology, Lipofectamine 2000 (Invitrogene) or JetPrime (Polyplus Transfection) was used to transiently transfect cells with indicated plasmid DNAs in 35 mm dishes. For biochemistry experiments, transient transfection of HEK 293T/17 cells in […] dishes was achieved using either JetPrime or, as previously described ([15], [53]), the calcium phosphate method. Cells were cotransfected with plasmids encoding the pore-forming α11.2 subunit N-terminally tagged with eCFP ([15], [53]) or mCherry ([54]) plus pGWIH-based plasmids encoding the auxiliary subunits rat β2A ([55]) and rabbit α2δ-1 ([56]) as previously described ([15], [53]). For all transfections, equimolar ratio of 1:1:1 was used for CaV1.2 channel subunits and later further optimized (JetPrime) for CaM (at ratio of 1:1:1:0.5 for α11.2:β2A:α2δ−1:CaM). Rat brain α11.2 (GenBank ID: M67515.1) N-terminally fused to eCFP was utilized as previously described ([15]). The point mutations in plasmids encoding single-residue I1654A, Y1657D (this report), and K1662E exchanges in α11.2 were generated via QuikChange II as previously described ([15], [53]) using N-terminally eCFP ([15], [53]) or mCherry tagged ([54]) rat brain α11.2 plasmid template DNAs. We studied CDI using mCherry-tagged α11.2 subunit coexpressed with the other, untagged CaV1.2 subunits and WT CaM or the calmodulin 34 mutant CaM34 (kindly provided by JP Adelman, ([8])). For some biochemical experiments shown in Fig. S2, YFP-tagged CaM was used ([32]).
(§2) Single-channel recordings were performed as described previously ([15], [31]). In brief, low noise raw data were recorded with an Axopatch 200B amplifier and data were sampled at 10 kHz with a low-pass filter at 2 kHz (3 dB, four pole Bessel) and digitalized with a Digidata 1440 digitizer. Recording electrodes were pulled from borosilicate capillary glass ([…]) with a Flaming/Brown micropipette puller (Model P-97, Sutter Instruments), heat polished, and coated with Sylgard (Sylgard 289) until close to the electrode tip. Electrode resistance in solution was usually 5 to 10 MΩ. To keep the membrane potential close to 0 mV the extracellular bath solution contained (in mM) 120 K-Glutamate, 25 KCl, 2 MgCl2, 1 CaCl2, 10 EGTA, 10 Hepes, and 2 Na2-ATP pH 7.4 (KOH). The intracellular pipette solution contained (in mM) 110 BaCl2 and 10 Hepes, adjusted to pH 7.4 (TEA-OH). Cells were depolarized for 2 s from a holding potential of -80 mV to 0 mV every 7 s. Event lists were created from raw Ba^2+ currents after leak and capacity transients were digitally subtracted by pClamp 10. Unitary current events were then analyzed based on the half-height criterium ([57]) using the single-channel software provided by pClamp 10.
(§3) For statistical analysis, single-channel parameters were corrected by the channel number (k), respectively, the maximum of simultaneously open channels (PMAX). The number of channels in the patch was estimated based on the observed simultaneous openings and is a precise parameter for k < 4, as included in this article and originally described by R. Horn ([58]). On average, 100 to 200 Ba^2+ current traces were recorded for each cell for each experimental condition for an appropriate statistical analysis.
Table S2. Biophysical properties of WT and Y1657D mutant CaV1.2 as determined by single channel recordings with 110 mM Ba2+. HEK 293T/17 cells were transiently transfected with eCFP-tagged rat CaV1.2 (WT versus Y1657D) plus α2δ1 and β2a. Single-channel parameter were corrected for the number of channels (k) in the patch. Availability denotes the number of active over […] traces. Popen (Po) is the open probability within active traces. Ipeak is the current flown through all channels in a patch at the time point of the current maximum and was corrected by the number of channels. Mean ensemble average (MEA) is the mean average current of all traces after being superimposed. […]

Assay [2] deals with CaV1.2. The assay is described as follows: Cell-attached single-channel recording of CaV1.2 with ectopic CaM in HEK 293T/17 cells. The assay is classed as cell-based, rat. Conditions: 110 mM Ba2+, 0 mV from -80 mV; mean±SEM (Table S3). On the procedure: as §1, §2, §3
Table S3. Effects of ectopically expressed CaM and CaM34 on CaV1.2 as determined by single channel recordings with 110 mM Ba2+. HEK 293T/17 cells were transiently transfected with eCFP-tagged rat CaV1.2, α2δ1 and β2a alone or together with WT CaM (+CaM) or CaM34 (+CaM34). Parameters were corrected for the number of channels (k) in the patch. Recordings were obtained at a test potential of 0 mV from a holding potential of -80 mV. For all parameters, statistical significance p was determined for CaV1.2 without ectopic CaM expression and for CaV1.2 plus CaM34 agains CaV1.2 plus wt CaM (one-way ANOVA followed by Bonferroni test). […]

Turning to “CaV1.2: WT rat brain α11.2 with α2δ1 and β2A expressed in HEK 293T/17 cells”, in assay [1], the Availability is recorded as 65±12%, the IPeak was found to be 21.2±5.3 fA, the “MEA (mean ensemble average)” value is given as 8.5±2.4 fA and the “MOT (mean open time)” value came to 1.4 ± 0.2 ms. In assay [1], the Po is listed as 2.0±0.5% and the unitary i came to 0.7±0.04 pA. Besides, in assay [2], the Availability stood at 77±7%, the IPeak is on record as 19.7±4.0 fA, the “MEA (mean ensemble average)” value is 9.6±2.4 fA and the “MOT (mean open time)” value amounted to 1.2 ± 0.2 ms. Also, in assay [2], the Po was 2.3±0.6% and the unitary i was 0.81±0.03 pA.
